Laboratory results from patent US20140135310A1, “SULPHONAMIDE DERIVATIVES OF ALICYCLIC AMINES FOR THE TREATMENT OF CENTRAL NERVOUS SYSTEM DISEASES” (Adamed Sp. z o.o., priority 2011, published 2014).

What was measured:
[1] = target: D2 dopaminergic receptors (Homo sapiens, UniProt P14416); assay: Cellular functional assay, D2 dopaminergic receptors; assay type: cell-based; conditions: D2S (h), HEK-293 cells; for D2 ag [%]: agonism, percent of control specific agonist response (3 μM dopamine for control); for D2 antag [%]: antagonism, stimulus dopamine (30 nM)
Chain of D2 dopaminergic receptors (P14416 whole entry): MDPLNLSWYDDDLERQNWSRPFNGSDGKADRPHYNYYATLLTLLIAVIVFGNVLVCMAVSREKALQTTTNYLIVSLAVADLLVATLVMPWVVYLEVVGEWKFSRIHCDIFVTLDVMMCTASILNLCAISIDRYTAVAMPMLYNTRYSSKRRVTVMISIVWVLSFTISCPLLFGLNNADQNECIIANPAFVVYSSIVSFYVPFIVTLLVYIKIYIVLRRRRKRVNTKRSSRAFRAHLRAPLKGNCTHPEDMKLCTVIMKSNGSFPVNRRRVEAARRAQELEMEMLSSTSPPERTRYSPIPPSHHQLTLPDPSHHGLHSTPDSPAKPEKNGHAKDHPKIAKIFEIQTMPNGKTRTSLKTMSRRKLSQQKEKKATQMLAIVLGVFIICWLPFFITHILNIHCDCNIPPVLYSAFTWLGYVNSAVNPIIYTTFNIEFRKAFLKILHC
Summary of the method: (§1)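 Responses expressed as percent of control specific agonist response; EC50 or IC50 from Hill-equation nonlinear fits of mean replicate concentration-response curves. For antagonists, Kb derived by modified Cheng-Prusoff using reference agonist concentration and its EC50.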

[2] = target: 5-HT6 serotoninergic receptors (Homo sapiens, UniProt P50406); assay: Cellular functional assay, 5-HT6 serotoninergic receptors; assay type: cell-based; conditions: agonist mode; percent of control specific agonist response
Chain of 5-HT6 serotoninergic receptors (P50406 whole entry): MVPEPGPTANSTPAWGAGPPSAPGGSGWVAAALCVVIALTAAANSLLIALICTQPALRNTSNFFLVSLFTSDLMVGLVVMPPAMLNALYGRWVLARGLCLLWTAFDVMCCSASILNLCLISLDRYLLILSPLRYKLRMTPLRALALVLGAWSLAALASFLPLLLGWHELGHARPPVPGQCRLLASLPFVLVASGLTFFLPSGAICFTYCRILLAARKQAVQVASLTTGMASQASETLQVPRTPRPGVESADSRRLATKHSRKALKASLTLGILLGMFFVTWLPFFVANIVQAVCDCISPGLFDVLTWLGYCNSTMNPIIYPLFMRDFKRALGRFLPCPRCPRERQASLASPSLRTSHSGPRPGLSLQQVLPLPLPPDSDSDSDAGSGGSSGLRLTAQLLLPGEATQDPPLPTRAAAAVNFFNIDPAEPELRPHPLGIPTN
Summary of the method: as §1

[3] = target: 5-HT7 serotoninergic receptors (Homo sapiens, UniProt P34969); assay: Cellular functional assay, 5-HT7 serotoninergic receptors; assay type: cell-based; conditions: agonist mode; percent of control specific agonist response
Chain of 5-HT7 serotoninergic receptors (P34969 whole entry): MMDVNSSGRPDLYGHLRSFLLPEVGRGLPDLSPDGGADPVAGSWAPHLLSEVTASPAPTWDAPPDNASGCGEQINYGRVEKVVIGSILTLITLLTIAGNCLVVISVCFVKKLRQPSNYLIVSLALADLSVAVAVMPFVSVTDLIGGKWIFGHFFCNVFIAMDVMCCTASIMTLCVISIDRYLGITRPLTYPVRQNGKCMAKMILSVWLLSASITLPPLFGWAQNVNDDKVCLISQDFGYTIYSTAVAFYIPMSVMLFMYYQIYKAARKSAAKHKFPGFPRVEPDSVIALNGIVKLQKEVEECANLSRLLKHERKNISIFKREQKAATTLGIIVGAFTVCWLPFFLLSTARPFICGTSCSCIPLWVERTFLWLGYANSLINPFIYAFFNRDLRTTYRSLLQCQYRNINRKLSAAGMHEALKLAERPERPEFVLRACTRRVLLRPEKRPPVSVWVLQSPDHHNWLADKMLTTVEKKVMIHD
Summary of the method: as §1

[4] = target: D3 dopaminergic receptors (Homo sapiens, UniProt P35462); assay: Cellular functional assay, D3 dopaminergic receptors; assay type: cell-based; conditions: D3 (h), CHO cells; for D3 ag [%]: agonism, percent of control specific agonist response (0.3 μM dopamine for control); for D3 antag [%]: antagonism, stimulus dopamine (10 nM)
Chain of D3 dopaminergic receptors (P35462 whole entry): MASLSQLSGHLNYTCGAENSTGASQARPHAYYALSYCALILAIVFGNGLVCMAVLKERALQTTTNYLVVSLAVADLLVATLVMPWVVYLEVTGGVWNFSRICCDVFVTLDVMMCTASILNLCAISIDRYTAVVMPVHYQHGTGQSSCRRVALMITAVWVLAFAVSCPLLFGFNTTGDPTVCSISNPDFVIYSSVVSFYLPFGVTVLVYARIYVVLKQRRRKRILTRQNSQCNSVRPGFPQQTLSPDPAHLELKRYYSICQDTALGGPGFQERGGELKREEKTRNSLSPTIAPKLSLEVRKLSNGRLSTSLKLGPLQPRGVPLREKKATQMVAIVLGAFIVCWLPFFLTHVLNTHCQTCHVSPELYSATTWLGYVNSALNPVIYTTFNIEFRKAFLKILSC
Summary of the method: as §1

[5] = target: T1, 5-HT1A serotoninergic receptors (Homo sapiens, UniProt P08908); assay: Cellular functional assay, 5-HT1A serotoninergic receptors; assay type: cell-based; conditions: agonist mode; percent of control specific agonist response
T1 sequence (P08908 1-422): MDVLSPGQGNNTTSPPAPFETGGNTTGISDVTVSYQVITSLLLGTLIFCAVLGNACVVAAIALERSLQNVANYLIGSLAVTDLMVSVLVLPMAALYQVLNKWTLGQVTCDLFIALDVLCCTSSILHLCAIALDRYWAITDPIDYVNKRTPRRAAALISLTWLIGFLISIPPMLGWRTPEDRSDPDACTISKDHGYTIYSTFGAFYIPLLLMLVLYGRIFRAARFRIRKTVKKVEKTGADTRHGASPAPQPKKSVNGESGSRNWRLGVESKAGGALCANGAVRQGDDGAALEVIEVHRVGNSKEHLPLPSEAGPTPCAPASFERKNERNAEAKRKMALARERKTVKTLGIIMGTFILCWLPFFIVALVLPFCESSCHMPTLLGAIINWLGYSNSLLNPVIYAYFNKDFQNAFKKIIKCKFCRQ
Procedure: (§2) The results are expressed as a percent of control specific agonist response ((measured specific response/control specific agonist response)×100) obtained in the presence of the test compounds.
(§3) The EC50 values (concentration producing a half-maximal specific response) and IC50 values (concentration causing a half-maximal inhibition of the control specific agonist response) were determined by non-linear regression analysis of the concentration-response curves generated with mean replicate values using Hill equation curve fitting (Y=D+[(A−D)/(1+(C/C50)nH)], where Y=specific response, D=minimum specific response, A=maximum specific response, C=compound concentration, and C50=EC50 or IC50, and nH=slope factor). This analysis was performed using a software developed at Cerep (Hill software) and validated by comparison with data generated by the commercial software SigmaPlot® 4.0 for Windows® (© 1997 by SPSS Inc.).
(§4) For the antagonists, the apparent dissociation constants (Kb) were calculated using the modified Cheng Prusoff equation (Kb=IC50/(1+(A/EC50A)), where A=concentration of reference agonist in the assay, and EC50A=EC50 value of the reference agonist).

[6] = target: T2, 5-HT reuptake (rat brain synaptosomes) (Rattus norvegicus, UniProt P31652); assay: 5-HT reuptake, [3H]5-HT incorporation into rat brain synaptosomes; assay type: biochemical; conditions: 15 min/37° C., read-out: SERT IC50
T2 construct: measuring [^3H]5-HT incorporation into rat brain synaptosomes; from tissue; host or cells: rat brain synaptosomes
T2 sequence (P31652 whole entry): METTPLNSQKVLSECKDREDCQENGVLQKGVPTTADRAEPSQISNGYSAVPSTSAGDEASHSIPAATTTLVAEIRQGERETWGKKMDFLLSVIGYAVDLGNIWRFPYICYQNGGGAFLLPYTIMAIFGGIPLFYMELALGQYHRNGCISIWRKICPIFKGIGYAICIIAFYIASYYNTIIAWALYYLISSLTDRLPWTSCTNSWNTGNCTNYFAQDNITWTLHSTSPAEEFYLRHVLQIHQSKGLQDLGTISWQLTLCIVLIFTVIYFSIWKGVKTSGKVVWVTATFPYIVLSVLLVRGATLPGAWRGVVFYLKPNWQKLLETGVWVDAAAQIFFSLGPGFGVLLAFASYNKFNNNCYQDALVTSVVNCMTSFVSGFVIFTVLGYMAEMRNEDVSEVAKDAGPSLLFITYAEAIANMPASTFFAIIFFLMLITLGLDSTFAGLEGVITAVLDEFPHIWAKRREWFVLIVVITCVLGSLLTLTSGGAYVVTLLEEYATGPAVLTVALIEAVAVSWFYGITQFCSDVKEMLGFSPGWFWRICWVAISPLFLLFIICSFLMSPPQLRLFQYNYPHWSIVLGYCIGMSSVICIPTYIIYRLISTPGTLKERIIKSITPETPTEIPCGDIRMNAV
Procedure: 5-HT reuptake was tested according to Perovic, S. and Muller, W.E.G. (1995) Arzneim-Forsch. Drug Res., 45: 1145-1148 by measuring [^3H]5-HT incorporation into rat brain synaptosomes. Assay conditions are as follows:
Tracer: [^3H]5-HT (0.2 μCi/ml)
Incubation: 15 min/37° C.

[7] = target: T3, 5-HT2C serotoninergic receptors (Homo sapiens, UniProt P28335); assay: Cellular functional assay, 5-HT2C serotoninergic receptors; assay type: cell-based
T3 sequence (P28335 33-458): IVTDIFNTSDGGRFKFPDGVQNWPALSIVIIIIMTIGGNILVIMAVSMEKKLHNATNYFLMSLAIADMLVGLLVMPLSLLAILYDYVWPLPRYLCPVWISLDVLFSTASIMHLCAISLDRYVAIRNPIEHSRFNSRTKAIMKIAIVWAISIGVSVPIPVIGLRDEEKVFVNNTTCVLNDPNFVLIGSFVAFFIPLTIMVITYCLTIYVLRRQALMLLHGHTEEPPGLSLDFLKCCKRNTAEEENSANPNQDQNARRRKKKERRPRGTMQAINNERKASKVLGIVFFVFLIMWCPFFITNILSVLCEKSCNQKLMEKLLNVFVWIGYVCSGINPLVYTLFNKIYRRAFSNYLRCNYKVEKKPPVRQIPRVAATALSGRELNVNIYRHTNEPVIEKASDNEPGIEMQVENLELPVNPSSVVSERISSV
Procedure: as §2, §3, §4

| Structure (SMILES) | D2 ag [%] [1] | D2 antag [%] [1] | 5-HT6 ag [%] [2] | 5-HT7 ag [%] [3] | D3 ag [%] [4] | D3 antag [%] [4] | 5-HT1A ag [%] [5] | IC50 [6] | 5-HT2C ag [%] ([7]; agonist mode, percent of control specific agonist response) | 5-HT2C antag [%] ([7]; antagonist mode) |
| --- | --- | --- | --- | --- | --- | --- | --- | --- | --- | --- |
| Cc1c(S(=O)(=O)NCC2CN(CCCc3noc4cc(F)ccc34)C2)sc2ccc(F)cc12 [Compound 130, 5-Fluoro-N-[[1-[3-(6-fluoro-1,2-benzoxazol-3-yl)propyl]azetidin-3-yl]methyl]-3-methyl-benzothiophene-2-sulphonamide] | 6% | 34% | 4% | 0% | 5% | 61% |  |  |  |  |
| O=S(=O)(NCC1CCN(CCOc2cccc3ccccc23)C1)c1ccc2ccccc2c1 (stereo not drawn) [Compound 124, N-[[1-[2-(1-Naphthyloxy)ethyl]pyrrolidin-3-yl]methyl]naphthalene-2-sulphonamide] | 33% | 44% | 7% | 10% | 11% | 43% | 16% |  |  |  |
| Cc1cccc(S(=O)(=O)NC2CCN(CCCc3c[nH]c4ccc(Cl)cc34)C2)c1 (stereo not drawn) [Compound 86, N-[1-[3-(5-chloro-1H-indol-3-yl)propyl]pyrrolidin-3-yl]-3-methyl-benzenesulphonamide] |  |  |  |  |  |  |  | 0.017 µM |  |  |
| O=S(=O)(NCC1CN(CCOc2cccc3ccccc23)C1)c1ccc2ccccc2c1 [Compound 122, N-[[1-[2-(1-Naphthyloxy)ethyl]azetidin-3-yl]methyl]naphthalene-2-sulphonamide] | 33% | 62% | 0% | 21% | 38% | 56% | 35% |  | 78% | −10% |
| O=S(=O)(NCC1CN(CCCc2noc3cc(F)ccc23)C1)c1ccc2ccccc2c1 [Compound 134, N-[[1-[3-(6-Fluoro-1,2-benzoxazol-3-yl)propyl]azetidin-3-yl]methyl]-naphthalene-2-sulphonamide] | 6% | 47% | 4% | 1% |  |  |  |  |  |  |
| Cc1c(S(=O)(=O)NCC2CN(CCCc3noc4cc(F)ccc34)C2)sc2ccc(Cl)cc12 [Compound 131, 5-Chloro-N-[[1-[3-(6-fluoro-1,2-benzoxazol-3-yl)propyl]azetidin-3-yl]-methyl]-3-methyl-benzothiophene-2-sulphonamide] | 5% | 20% | 3% | 1% | −13% | 55% |  |  |  |  |
